Results on two molecules are retold here after US20140051735A1, “USE OF N-PHENYLETHYLPYRAZOLE CARBOXAMIDE DERIVATIVES OR SALTS THEREOF FOR CONTROLLING POWDERY MILDEW PRIMARY INFECTIONS” (BAYER INTELLECTUAL PROPERTY GMBH, priority 2010, published 2014).

Assay [1] concerns powdery mildew species. Conditions: on different crops; cited from earlier work.
Assay [2] has as its system powdery mildew primary infections. Put plainly: controlling powdery mildew primary infections in perennial crops after application prior to the end of the previous vegetative cycle. In kind it is in vivo. Conditions: in the year of the application and also in the year after.

Turning to `O=C(NCCc1ncc(C(F)(F)F)cc1Cl)c1ccccc1C(F)(F)F` [fluopyram], the “efficacy against powdery mildew species” value in assay [1] is on record as “high level of efficacy”.

As to `COC(c1ccc(Cl)cc1Cl)C(C)NC(=O)c1cn(C)nc1C(F)F` (stereo not drawn) [3-difluoromethyl-1-methyl-1H-pyrazole-4-carboxylic acid [2-(2,4-dichlorophenyl)-2-methoxy-1-methyl-ethyl]-amide], in assay [2], the “infection of new growing shoots and leaves” value is “delayed”; the “number of early infected shoots” value was “significantly reduced”.
